Experiment [1] relates to Polyketide synthase Pks13 (Mycobacterium tuberculosis (strain ATCC 25618 / H37Rv)), I6X8D2 [N1640S]. Put plainly: Binding affinity to Mycobacterium tuberculosis Pks13-TE N1640S mutant expressed in Escherichia coli BL21(DE3) pLysS assessed as change in melting temperature at 1:10 compound to protein ratio by nanoDSF thermal stability analysis. For orientation: Differential scanning fluorimetry follows unfolding on heating by fluorescence.

For experiment [2] the test system is unchanged. As to the kind of experiment: Binding affinity to Mycobacterium tuberculosis Pks13-TE N1640S mutant expressed in Escherichia coli BL21(DE3) pLysS assessed as change in melting temperature at 1:5 compound to protein ratio by nanoDSF thermal stability analysis.
Experiment [3] deals with Polyketide synthase Pks13 (Mycobacterium tuberculosis (strain ATCC 25618 / H37Rv)), I6X8D2 [N1640K]. Put plainly: Binding affinity to Mycobacterium tuberculosis Pks13-TE N1640K mutant expressed in Escherichia coli BL21(DE3) pLysS assessed as change in melting temperature at 1:10 compound to protein ratio by nanoDSF thermal stability analysis.
The test system is the same in experiment [4]. As to the kind of experiment: Binding affinity to Mycobacterium tuberculosis Pks13-TE N1640K mutant expressed in Escherichia coli BL21(DE3) pLysS assessed as change in melting temperature at 1:5 compound to protein ratio by nanoDSF thermal stability analysis.
For experiment [5], the system named is Mycobacterium tuberculosis. It counts as functional, Vero. The conditions noted are these: R506, 168 h, time 7 day.
Experiment [6] concerns Mycobacterium tuberculosis. The format is functional, Vero. The following applies: TF274, 168 h, time 7 day.
The test system of experiment [7] is Mycobacterium tuberculosis. The format is functional, Vero. The conditions noted are these: V2475, 168 h, time 7 day.
Experiment [8] has as its system Mycobacterium tuberculosis. It counts as functional, Vero. The following applies: KZN494, 168 h, time 7 day.

Molecules are shown by their SMILES. In brackets after ≈: the same amount, converted by molar mass.

Drawing on ChEMBL document CHEMBL5104197, “Structure-Based Optimization of Coumestan Derivatives as Polyketide Synthase 13-Thioesterase(Pks13-TE) Inhibitors with Improved hERG Profiles for Mycobacterium tuberculosis Treatment” (J Med Chem, 2022), this text covers ΔTm and MIC90 for six molecules.

Broadly, the ΔTm is the shift of the melting midpoint relative to a reference. For `O=c1oc2cc(O)ccc2c2oc3ccc(O)c(CN4CC[C@H](F)C4)c3c12`, the results for the ΔTm in experiment [1] and in experiment [2] were 7.9 °C and 6.9 °C, respectively.
As for `O=c1oc2cc(O)ccc2c2oc3ccc(O)c(CN4CCCCC4)c3c12`, the ΔTm in experiment [3] was determined as 0.9 °C; in experiment [1] it was 10.5 °C; in experiment [4], 0.8 °C; in experiment [2] it was 11.4 °C.
Take `COc1ccc2c(c1)oc(=O)c1c2oc2ccc(O)c(CN3CCC(F)(F)CC3)c21`: the ΔTm in experiment [1] amounted to 1.7 °C; in experiment [2], 1.9 °C.
For the molecule `O=c1oc2cc(O)ccc2c2oc3ccc4c(c3c12)CN(CC1CC1)CO4`, the ΔTm in experiment [3] was found to be 0.1 °C; in experiment [1] it was 9.3 °C; in experiment [4], 0.2 °C; in experiment [2] it was 8.6 °C.
Broadly, the MIC90 is an inhibitory concentration at the 90% level, which refers to growth in some studies and to a panel of isolates in others. Lower therefore signals higher susceptibility. In the case of `O=c1oc2cc(O)ccc2c2oc3ccc4c(c3c12)CN(C1CCCC1)CO4`, the MIC90 in experiment [5], in experiment [6], in experiment [7] and in experiment [8] was 0.0039 µg/mL (≈ 0.0103 µM) in each case. The ΔTm in experiment [3] was found to be 0.1 °C; in experiment [1] it was 10.9 °C; in experiment [4], 0.3 °C; in experiment [2], 10.1 °C.
Turning to `O=c1oc2cc(O)ccc2c2oc3ccc(O)c(CN4CCC(F)CC4)c3c12`, the MIC90 came out at 0.0625 µg/mL (≈ 0.163 µM) in experiment [5], 0.0625 µg/mL (≈ 0.163 µM) in experiment [6], 0.125 µg/mL (≈ 0.326 µM) in experiment [7] and 0.0625 µg/mL (≈ 0.163 µM) in experiment [8]. Besides, the shift in melting temperature (ΔTm) in experiment [3] is 1 °C; in experiment [1], 9.6 °C; in experiment [4] it was 1.5 °C; in experiment [2] it was 8.7 °C.
